Measured values taken from US11339170B1, “Spiropyrrolidine derived antiviral agents” (priority 2021, dated 2022).
Read-outs that look alike come from different tables or passages of the source.

How the values were obtained:
[1] = biological target: SARS-CoV-2 3CL-protease (Severe acute respiratory syndrome coronavirus 2 (2019-nCoV) (SARS-CoV-2), UniProt P0DTD1); test: SARS-CoV-2 3C-like (3CL) protease fluorescence assay (FRET); format: biochemical
[2] = system: 229E human corona virus (hCoV); test: 229E live virus assay (CPE, ATPlite readout) in MRC-5 cells; format: cell-based, hCoV-229E; settings: Human coronavirus 229E, MRC5, 144 h, read-out: 229E EC50
[3] = recombinant SARS-CoV-2 3CL-protease 10 nM, 30 min preincubation, duplicate, read-out: FRET IC50

Row | SMILES | IC50 ([1]; read-out: FRET IC50, recombinant SARS-CoV-2 3CL-protease 10 nM, 30 min preincubation, duplicate) | IC50 [1, 3] | IC50 [1] | EC50 [2] | EC50 ([2]; MRC-5 cells, MOI 0.05, 6 days at 34° C., ATPlite, duplicate)
1 | CC(C)C[C@@H](C(=O)N1C[C@]2(C[C@H]1C#N)C(=O)Nc1ccccc12)N(C)C(=O)C(=O)Nc1ccc(F)cc1F [Compound 1] | < 100 nM |  |  |  | 
2 | CC(C)C[C@@H](C(=O)N1C[C@]2(C[C@H]1C#N)C(=O)Nc1ccccc12)N(C)C(=O)C(=O)Nc1ccc(F)cc1F [Compound 2] |  | < 100 nM |  |  | 
3 | CC(C)C[C@@H](C(=O)N1C[C@]2(C[C@H]1C#N)C(=O)Nc1ccccc12)N(C)C(=O)C(=O)Nc1ccccc1 [Compound 3] |  |  | < 100 nM | < 100 nM | 
4 | CC(C)C[C@@H](C(=O)N1C[C@]2(C[C@H]1C#N)C(=O)Nc1ccccc12)N(C)C(=O)C(=O)Nc1ccc(F)cc1 [Compound 4] |  |  | < 100 nM | < 100 nM | 
5 | CC(C)C[C@@H](C(=O)N1C[C@]2(C[C@H]1C#N)C(=O)Nc1ccccc12)N(C)C(=O)C(=O)Nc1ccc(F)c(F)c1 [Compound 5] |  |  | 100 to 1000 nM | < 100 nM | 
6 | CC(C)C[C@@H](C(=O)N1C[C@]2(C[C@H]1C#N)C(=O)Nc1ccccc12)N(C)C(=O)C(=O)Nc1cc(F)c(F)c(F)c1 [Compound 6] |  |  | 100 to 1000 nM | < 100 nM | 
7 | CC(C)C[C@@H](C(=O)N1C[C@]2(C[C@H]1C#N)C(=O)Nc1ccccc12)N(C)C(=O)C(=O)Nc1ccc2ccccc2c1 [Compound 7] |  |  | < 100 nM | < 100 nM | 
8 | CC(C)C[C@@H](C(=O)N1C[C@]2(C[C@H]1C#N)C(=O)Nc1ccccc12)N(C)C(=O)C(=O)Nc1cccc2ccccc12 [Compound 8] |  |  | < 100 nM | < 100 nM | 
9 | CC(C)C[C@@H](C(=O)N1C[C@]2(C[C@H]1C#N)C(=O)Nc1ccccc12)N(C)C(=O)C(=O)N(C)c1ccccc1 [Compound 9] |  |  | < 100 nM | < 100 nM | 
10 | CC(C)C[C@@H](C(=O)N1C[C@]2(C[C@H]1C#N)C(=O)Nc1ccccc12)N(C)C(=O)C(=O)N(C)c1ccc(F)cc1 [Compound 10] |  |  | < 100 nM | < 100 nM | 
11 | CC(C)C[C@@H](C(=O)N1C[C@]2(C[C@H]1C#N)C(=O)Nc1ccccc12)N(C)C(=O)C(=O)Nc1ccc2cccnc2c1 [Compound 11] |  |  | < 100 nM | < 100 nM | 
12 | CC(C)C[C@@H](C(=O)N1C[C@]2(C[C@H]1C#N)C(=O)Nc1ccccc12)N(C)C(=O)C(=O)Nc1ccc2cnccc2c1 [Compound 12] |  |  | < 100 nM | < 100 nM | 
13 | CC(C)C[C@@H](C(=O)N1C[C@]2(C[C@H]1C#N)C(=O)Nc1ccccc12)N(C)C(=O)C(=O)Nc1ccc2ccccc2n1 [Compound 13] |  |  | < 100 nM | < 100 nM | 
14 | CC(C)C[C@@H](C(=O)N1C[C@]2(C[C@H]1C#N)C(=O)Nc1ccccc12)N(C)C(=O)C(=O)Nc1ccc2ncccc2c1 [Compound 14] |  |  | < 100 nM | < 100 nM | 
15 | CC(C)C[C@@H](C(=O)N1C[C@]2(C[C@H]1C#N)C(=O)Nc1ccccc12)N(C)C(=O)C(=O)Nc1cnc2ccccc2c1 [Compound 15] |  |  | < 100 nM | < 100 nM | 
16 | CC(C)C[C@@H](C(=O)N1C[C@]2(C[C@H]1C#N)C(=O)Nc1ccccc12)N(C)C(=O)C(=O)Nc1nn(C)c2ccccc12 [Compound 16] |  |  | < 100 nM | < 100 nM | 
17 | CC(C)C[C@@H](C(=O)N1C[C@]2(C[C@H]1C#N)C(=O)Nc1ccccc12)N(C)C(=O)C(=O)Nc1nc2ccccc2s1 [Compound 17] |  |  | < 100 nM | < 100 nM | 
18 | CC(C)C[C@@H](C(=O)N1C[C@]2(C[C@H]1C#N)C(=O)Nc1ccccc12)N(C)C(=O)C(=O)Nc1nc2ccccc2n1C [Compound 18] |  |  | < 100 nM | < 100 nM | 
19 | CC(C)C[C@@H](C(=O)N1C[C@]2(C[C@H]1C#N)C(=O)Nc1ccccc12)N(C)C(=O)C(=O)Nc1n[nH]c2ccccc12 [Compound 19] |  | < 100 nM |  |  | < 100 nM
20 | CN(C(=O)C(=O)Nc1ccc(F)cc1F)[C@@H](CC(C)(C)C)C(=O)N1C[C@]2(C[C@H]1C#N)C(=O)Nc1ccccc12 [Compound 20] |  |  | < 100 nM | < 100 nM | 
21 | CN(C(=O)C(=O)Nc1ccc(F)cc1)[C@@H](CC(C)(C)C)C(=O)N1C[C@]2(C[C@H]1C#N)C(=O)Nc1ccccc12 [Compound 21] |  |  | < 100 nM | < 100 nM | 
22 | [2H]C([2H])([2H])N(C(=O)C(=O)Nc1ccc(F)cc1)[C@@H](CC(C)(C)C)C(=O)N1C[C@]2(C[C@H]1C#N)C(=O)Nc1ccccc12 [Compound 22] |  |  | < 100 nM | < 100 nM | 

Row | SMILES | IC50 ([1]; read-out: FRET IC50, recombinant SARS-CoV-2 3CL-protease 10 nM, 30 min preincubation, duplicate) | IC50 [1, 3] | IC50 [1] | EC50 [2] | EC50 ([2]; MRC-5 cells, MOI 0.05, 6 days at 34° C., ATPlite, duplicate)
23 | [2H]C([2H])([2H])N(C(=O)C(=O)Nc1ccc(F)cc1F)[C@@H](CC(C)(C)C)C(=O)N1C[C@]2(C[C@H]1C#N)C(=O)Nc1ccccc12 [Compound 23] |  |  | < 100 nM | < 100 nM | 
24 | [2H]C([2H])([2H])N(C(=O)C(=O)Nc1ccc(F)c(F)c1)[C@@H](CC(C)(C)C)C(=O)N1C[C@]2(C[C@H]1C#N)C(=O)Nc1ccccc12 [Compound 24] |  |  | < 100 nM | < 100 nM | 
25 | [2H]C([2H])([2H])N(C(=O)C(=O)NC1CCC1)[C@@H](CC(C)(C)C)C(=O)N1C[C@]2(C[C@H]1C#N)C(=O)Nc1ccccc12 [Compound 25] |  |  | < 100 nM | < 100 nM | 
26 | [2H]C([2H])([2H])N(C(=O)C(=O)NC1CCCCC1)[C@@H](CC(C)(C)C)C(=O)N1C[C@]2(C[C@H]1C#N)C(=O)Nc1ccccc12 [Compound 26] |  |  | < 100 nM | < 100 nM | 
27 | [2H]C([2H])([2H])N(C(=O)C(=O)Nc1ccccn1)[C@@H](CC(C)(C)C)C(=O)N1C[C@]2(C[C@H]1C#N)C(=O)Nc1ccccc12 [Compound 27] |  |  | 100 to 1000 nM | < 100 nM | 
28 | [2H]C([2H])([2H])N(C(=O)C(=O)N1CCCCC1)[C@@H](CC(C)(C)C)C(=O)N1C[C@]2(C[C@H]1C#N)C(=O)Nc1ccccc12 [Compound 29] |  |  | 100 to 1000 nM | < 100 nM | 
29 | [2H]C([2H])([2H])N(C(=O)C(=O)Nc1ccc(F)cc1)[C@@H](Cc1ccccc1)C(=O)N1C[C@]2(C[C@H]1C#N)C(=O)Nc1ccccc12 [Compound 30] |  |  | < 100 nM | < 100 nM | 
30 | [2H]C([2H])([2H])N(C(=O)C(=O)NC1CCCC1)[C@@H](CC(C)(C)C)C(=O)N1C[C@]2(C[C@H]1C#N)C(=O)Nc1ccccc12 [Compound 31] |  |  | < 100 nM | < 100 nM | 
31 | [2H]C([2H])([2H])N(C(=O)C(=O)Nc1ccccc1)[C@@H](Cc1ccccc1)C(=O)N1C[C@]2(C[C@H]1C#N)C(=O)Nc1ccccc12 [Compound 32] |  |  | < 100 nM | < 100 nM | 
32 | [2H]C([2H])([2H])N(C(=O)C(=O)Nc1ccccn1)[C@@H](Cc1ccccc1)C(=O)N1C[C@]2(C[C@H]1C#N)C(=O)Nc1ccccc12 [Compound 33] |  |  | < 100 nM | < 100 nM | 
33 | [2H]C([2H])([2H])N(C(=O)C(=O)NC1CC1)[C@@H](Cc1ccccc1)C(=O)N1C[C@]2(C[C@H]1C#N)C(=O)Nc1ccccc12 [Compound 34] |  |  | < 100 nM | < 100 nM | 
34 | [2H]C([2H])([2H])N(C(=O)C(=O)Nc1c(C)cccc1C)[C@@H](CC(C)(C)C)C(=O)N1C[C@]2(C[C@H]1C#N)C(=O)Nc1ccccc12 [Compound 35] |  |  | < 100 nM | < 100 nM | 
35 | [2H]C([2H])([2H])N(C(=O)C(=O)N(C)c1ccccc1)[C@@H](CC(C)(C)C)C(=O)N1C[C@]2(C[C@H]1C#N)C(=O)Nc1ccccc12 [Compound 36] |  |  | > 1000 nM | 100 to 1000 nM | 
36 | [2H]C([2H])([2H])N(C(=O)C(=O)Nc1ccc2ncccc2c1)[C@@H](CC(C)(C)C)C(=O)N1C[C@]2(C[C@H]1C#N)C(=O)Nc1ccccc12 [Compound 37] |  |  | < 100 nM | < 100 nM | 
37 | [2H]C([2H])([2H])N(C(=O)C(=O)Nc1ccc(F)c(F)c1)[C@@H](CC1CC1)C(=O)N1C[C@]2(C[C@H]1C#N)C(=O)Nc1ccccc12 [Compound 38] |  |  | < 100 nM | < 100 nM | 
38 | [2H]C([2H])([2H])N(C(=O)C(=O)Nc1ccc(F)cc1)[C@@H](CC1CC1)C(=O)N1C[C@]2(C[C@H]1C#N)C(=O)Nc1ccccc12 [Compound 39] |  |  | < 100 nM | < 100 nM | 
39 | CC(C)C[C@@H](C(=O)N1C[C@]2(C[C@H]1C#N)C(=O)Nc1ccccc12)N(C)C(=O)C(=O)NC1CC1 [Compound 40] |  |  | < 100 nM | < 100 nM | 
40 | CC(C)C[C@@H](C(=O)N1C[C@]2(C[C@H]1C#N)C(=O)Nc1ccccc12)N(C)C(=O)C(=O)c1ccc(F)cc1 [Compound 41] |  |  | < 100 nM | < 100 nM | 
41 | CC(C)C[C@@H](C(=O)N1C[C@]2(C[C@H]1C#N)C(=O)Nc1ccccc12)N(C)C(=O)C(=O)N(C)C1CC1 [Compound 42] |  |  | < 100 nM | < 100 nM | 
42 | CC(C)C[C@@H](C(=O)N1C[C@]2(C[C@H]1C#N)C(=O)Nc1ccccc12)N(C)C(=O)C(=O)C1CC1 [Compound 43] |  |  | < 100 nM | < 100 nM | 
43 | CC(C)(C)C[C@H](NC(=O)C(=O)NC(C)(C)C)C(=O)N1C[C@]2(C[C@H]1C#N)C(=O)Nc1ccccc12 [Compound 69] |  |  | < 100 nM |  | 
